Experimental findings from patent US20240270762A1, “PENICILLIN-BINDING PROTEIN INHIBITORS” (priority 2021, published 2024) are described below.

Assay [1] concerns the target T1, PBP3 from Escherichia coli (K-12) (Escherichia coli, UniProt P0AD68).
T1 construct: made in house
In words: Bocillin-FL fluorescence polarization competition binding, E. coli PBP3. The procedure, abridged:
(§1)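 Purified PBPs pre-incubated with inhibitor (E. coli PBP3 1.5 μM, 30 min; P. aeruginosa PBP3 0.75 μM, A. baumannii PBP1a 1 μM and PBP3 0.2 μM, 15 min), then Bocillin-FL 0.1 μM (0.05 μM for PBP1a) added; FP read up to 60 min. EC50 = concentration halving bound Bocillin-FL.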
On the technique in general: Fluorescence polarisation rises when a labelled molecule tumbles more slowly, as on binding a larger partner.

In assay [2] the target is T2, PBP3 from Acinetobacter baumannii (ATCC 19606) (Acinetobacter baumannii, UniProt A0ABX6CK25).
T2 sequence (A0ABX6CK25 64-610): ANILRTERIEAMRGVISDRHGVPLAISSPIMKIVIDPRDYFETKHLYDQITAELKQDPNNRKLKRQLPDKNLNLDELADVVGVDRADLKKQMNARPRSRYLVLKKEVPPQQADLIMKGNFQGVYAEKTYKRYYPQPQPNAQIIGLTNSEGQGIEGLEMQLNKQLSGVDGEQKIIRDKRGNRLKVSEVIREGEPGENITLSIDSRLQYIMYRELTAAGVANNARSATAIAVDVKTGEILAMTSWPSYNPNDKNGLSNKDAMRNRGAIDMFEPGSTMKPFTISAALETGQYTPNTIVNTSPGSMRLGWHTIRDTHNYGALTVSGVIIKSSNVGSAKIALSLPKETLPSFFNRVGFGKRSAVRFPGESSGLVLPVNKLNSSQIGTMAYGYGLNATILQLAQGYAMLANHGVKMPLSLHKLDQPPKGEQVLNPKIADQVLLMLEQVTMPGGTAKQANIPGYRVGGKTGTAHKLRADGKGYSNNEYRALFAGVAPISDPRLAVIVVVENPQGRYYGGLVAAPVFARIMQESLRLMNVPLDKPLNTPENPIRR
As to the kind of experiment: Bocillin-FL fluorescence polarization competition binding, A. baumannii PBP3. Particulars: fluorescence polarization competition binding assay using Bocillin-FL; read-out: A. baumannii PBP3 Potency. The method, boiled down: as §1

The test system of assay [3] is A. baumannii ATCC 17978. As to the kind of experiment: microbe, parasite or virus in culture. The assay is classed as cell-based. Particulars: Acinetobacter baumannii, ATCC17978, read-out: MIC, A. baumannii ATCC 17978.
Assay [4] relates to P. aeruginosa ATCC 35151. As to the kind of experiment: microbe, parasite or virus in culture. Particulars: Pseudomonas aeruginosa, ATCC35151, read-out: Minimum inhibitory concentration, P. aeruginosa ATCC 35151. The assay is classed as cell-based.
Assay [5] deals with P. aeruginosa (ΔmexAB-oprM). In words: Broth microdilution MIC in iron-depleted CAMHB (IDM). The assay is classed as cell-based. The conditions noted are these: Pseudomonas aeruginosa; iron-depleted CAMHB (IDM); […]; read-out: Minimum inhibitory concentration, P. aeruginosa ΔmexAB-oprM. (In general: Broth dilution looks for growth in wells or tubes with falling amounts of substance.)

The test system of assay [6] is P. aeruginosa CDC-0054. In words: microbe, parasite or virus in culture. Particulars: Pseudomonas aeruginosa, CDC0054, read-out: Minimum inhibitory concentration, P. aeruginosa CDC-0054. The assay is classed as cell-based.
The subject of assay [7] is N. gonorrhoeae ATCC 49226. As to the kind of experiment: Liquid broth MIC in Fastidious broth. The conditions noted are these: Neisseria gonorrhoeae, ATCC49226, read-out: Minimum Inhibitory Concentration (MIC), N. gonorrhoeae ATCC 49226.
Assay [8] has as its system N. gonorrhoeae MS11. In words: Liquid broth MIC in Fastidious broth. The conditions noted are these: Neisseria gonorrhoeae, MS11, read-out: Minimum Inhibitory Concentration (MIC), N. gonorrhoeae MS11.
For assay [9], the system named is N. gonorrhoeae WHO K. In words: Liquid broth MIC in Fastidious broth. Particulars: Neisseria gonorrhoeae, read-out: Minimum Inhibitory Concentration (MIC), N. gonorrhoeae WHO K.
In assay [10] the test system is N. gonorrhoeae WHO Z. In words: Liquid broth MIC in Fastidious broth. Particulars: Neisseria gonorrhoeae, read-out: Minimum Inhibitory Concentration (MIC), N. gonorrhoeae WHO Z.

Converted amounts (≈) assume the structure as drawn. Some results are limits rather than exact numbers.

T1 sequence (P0AD68 1-577): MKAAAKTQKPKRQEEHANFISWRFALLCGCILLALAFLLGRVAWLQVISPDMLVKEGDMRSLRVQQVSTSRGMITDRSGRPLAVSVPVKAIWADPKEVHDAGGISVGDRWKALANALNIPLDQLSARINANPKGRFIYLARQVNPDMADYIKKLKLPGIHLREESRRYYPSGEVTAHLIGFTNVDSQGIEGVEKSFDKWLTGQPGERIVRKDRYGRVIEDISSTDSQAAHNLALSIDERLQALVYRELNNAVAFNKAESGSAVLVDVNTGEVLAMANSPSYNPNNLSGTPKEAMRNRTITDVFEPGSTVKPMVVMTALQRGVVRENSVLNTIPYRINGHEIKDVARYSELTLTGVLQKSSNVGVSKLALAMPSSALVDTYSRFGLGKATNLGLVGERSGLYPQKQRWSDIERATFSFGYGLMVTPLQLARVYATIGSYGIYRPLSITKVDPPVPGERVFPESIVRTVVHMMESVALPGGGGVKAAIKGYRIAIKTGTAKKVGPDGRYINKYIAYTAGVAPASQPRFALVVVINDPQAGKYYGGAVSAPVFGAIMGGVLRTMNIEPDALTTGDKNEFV

On to `O=C(CN1CCN(C(=O)NC(C(=O)N[C@H]2Cc3ccc(F)c(C(=O)O)c3OB2O)c2cc(F)c(O)c(O)c2Cl)C(=O)C1=O)NCc1cccnc1` (stereo partly drawn) [Example 240, (3R)-3-(2-(2-chloro-5-fluoro-3,4-dihydroxyphenyl)-2-(2,3-dioxo-4-(2-oxo-2-((pyridin-3-ylmethyl)amino)ethyl)piperazine-1-carboxamido)acetamido)-7-fluoro-2-hydroxy-3,4-dihydro-2H-benzo[e][1,2]oxaborinine-8-carboxylic acid], for which the EC50 in assay [1] was < 10 µM. In addition, the IC50 in assay [2] was < 10 µM. For the same compound, the MIC in assay [3] is < 1 µg/mL; in assay [4] it was < 1 µg/mL; in assay [5] it was < 1 µg/mL; in assay [6], < 1 µg/mL; in [7] it was 16 to 32 µg/mL (≈ 21.9 to 43.8 µM); in assay [8] it was 16 to 32 µg/mL (≈ 21.9 to 43.8 µM). In addition, the MIC is > 64 µg/mL in assay [9] and 16 to 32 µg/mL (≈ 21.9 to 43.8 µM) in assay [10].

`O=C(NCCN1CCN(C(=O)NC(C(=O)N[C@H]2Cc3ccc(F)c(C(=O)O)c3OB2O)c2cc(F)c(O)c(O)c2Cl)C(=O)C1=O)c1nccs1` (stereo partly drawn) [Example 218, (3R)-3-(2-(2-chloro-5-fluoro-3,4-dihydroxyphenyl)-2-(2,3-dioxo-4-(2-(thiazole-2-carboxamido)ethyl)piperazine-1-carboxamido)acetamido)-7-fluoro-2-hydroxy-3,4-dihydro-2H-benzo[e][1,2]oxaborinine-8-carboxylic acid]: the EC50 in [1] is < 10 µM. Further, in assay [2], the IC50 was < 10 µM. The MIC in [3] is < 1 µg/mL; in [4], < 1 µg/mL; in assay [5], < 1 µg/mL; in assay [6], 8 to 16 µg/mL (≈ 10.9 to 21.7 µM); in [7] it was 16 to 32 µg/mL (≈ 21.7 to 43.4 µM); in [8], 16 to 32 µg/mL (≈ 21.7 to 43.4 µM). The MIC in assay [9] and in assay [10] was > 64 µg/mL in each case.

For orientation: EC50 means the midpoint of the concentration-response curve.
